Data from doi:10.1101/2024.06.05.597555v1 (biorxiv, 2024).
Where two headings read alike, the source gives them in different places.

What was measured:
[1] = target: T1, DENV2proHeLa NS2B-NS3 protease (Dengue virus 2 Thailand/16681/84, UniProt P29990); experiment: cell-based; set-up: species or system DENV2proHeLa (HeLa); conditions: HeLa, read-out: % inhibition
[2] = in vitro; set-up: species or system DENV2proHeLa (HeLa); conditions: human, denv2prohela cells
[3] = target: T1, DENV2proHeLa NS2B-NS3 protease; experiment: cell-based; set-up: species or system DENV2proHeLa (HeLa)
[4] = target: T2, NS2B(H)-NS3pro (DENV-2 NS2B-NS3 protease) (Dengue virus 2 Thailand/NGS-C/1944, UniProt P14340); conditions: read-out: IC50 (C7.5-HEPES AMC); AMC substrate, HEPES pH 7.5, CHAPS; inhibitor
T2 sequence (P14340 1394-1433 limits assumed): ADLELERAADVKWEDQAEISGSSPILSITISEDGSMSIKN
T2 sequence (P14340 1476-1660 limits assumed): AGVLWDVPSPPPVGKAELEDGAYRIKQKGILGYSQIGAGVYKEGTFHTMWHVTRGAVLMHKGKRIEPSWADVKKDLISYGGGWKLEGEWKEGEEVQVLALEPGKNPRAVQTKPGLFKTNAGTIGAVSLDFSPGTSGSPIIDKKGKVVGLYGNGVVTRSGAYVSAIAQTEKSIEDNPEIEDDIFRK

[5] = in vitro; set-up: species or system DENV2proHeLa (HeLa); conditions: human, denv2prohela cells; remark: listed apart in the source
[6] = target: T1, DENV2proHeLa NS2B-NS3 protease; experiment: cell-based; set-up: species or system DENV2proHeLa (HeLa); conditions: HeLa, read-out: % inhibition; remark: listed apart in the source
[7] = target: T2, NS2B(H)-NS3pro (DENV-2 NS2B-NS3 protease); experiment: biochemical; conditions: read-out: % inhibition
[8] = target: T1, DENV2proHeLa NS2B-NS3 protease; experiment: cell-based
[9] = system: DENV-2; experiment: microbe, parasite or virus in culture; conditions: Dengue virus, DENV2, Vero, 48 h, read-out: % inhibition
[10] = target: T2, NS2B(H)-NS3pro (DENV-2 NS2B-NS3 protease); conditions: read-out: IC50 (C7.5-HEPES AMC); AMC substrate, HEPES pH 7.5, CHAPS; inhibitor; remark: listed apart in the source
[11] = target: T1, DENV2proHeLa NS2B-NS3 protease; experiment: cell-based; set-up: species or system DENV2proHeLa (HeLa); conditions: HeLa, read-out: % inhibition; remark: listed apart in the source
[12] = target: T2, NS2B(H)-NS3pro (DENV-2 NS2B-NS3 protease); experiment: biochemical; conditions: read-out: % inhibition; remark: listed apart in the source
[13] = in vitro; set-up: species or system DENV2proHeLa (HeLa); conditions: human, denv2prohela cells; remark: listed apart in the source
[14] = target: T2, NS2B(H)-NS3pro (DENV-2 NS2B-NS3 protease); experiment: fluorometric protease assay, AMC substrate; assay type: biochemical; conditions: pH 7.5, HEPES, CHAPS; substrate Bz-nKRR-AMC
[15] = in vitro; set-up: species or system DENV2proHeLa (HeLa); conditions: human, denv2prohela cells; remark: listed apart in the source
[16] = target: T1, DENV2proHeLa NS2B-NS3 protease; experiment: cell-based; set-up: species or system DENV2proHeLa (HeLa); conditions: HeLa, read-out: % inhibition; remark: listed apart in the source
[17] = target: T1, DENV2proHeLa NS2B-NS3 protease; experiment: cell-based; set-up: species or system DENV2proHeLa (HeLa); remark: listed apart in the source
[18] = read-out: DENV2proHeLa EC50, inhibitor

T1 sequence (P29990 1476-2093 limits assumed): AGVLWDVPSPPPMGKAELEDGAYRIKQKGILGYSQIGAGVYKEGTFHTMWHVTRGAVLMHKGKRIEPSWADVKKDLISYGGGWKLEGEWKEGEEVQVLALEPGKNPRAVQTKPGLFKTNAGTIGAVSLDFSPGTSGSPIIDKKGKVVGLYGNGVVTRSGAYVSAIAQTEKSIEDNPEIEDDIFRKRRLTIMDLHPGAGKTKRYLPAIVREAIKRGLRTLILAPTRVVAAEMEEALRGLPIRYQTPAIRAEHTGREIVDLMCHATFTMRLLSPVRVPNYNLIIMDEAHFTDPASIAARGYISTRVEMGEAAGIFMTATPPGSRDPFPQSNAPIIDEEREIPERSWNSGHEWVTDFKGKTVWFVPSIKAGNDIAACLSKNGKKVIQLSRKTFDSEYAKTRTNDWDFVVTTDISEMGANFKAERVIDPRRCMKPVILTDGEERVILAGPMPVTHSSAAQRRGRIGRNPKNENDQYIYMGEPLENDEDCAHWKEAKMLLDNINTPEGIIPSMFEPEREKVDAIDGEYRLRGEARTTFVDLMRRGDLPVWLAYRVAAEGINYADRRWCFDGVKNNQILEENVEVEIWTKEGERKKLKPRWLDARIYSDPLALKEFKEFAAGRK
T1 sequence (P29990 1346-1475 partner limits assumed): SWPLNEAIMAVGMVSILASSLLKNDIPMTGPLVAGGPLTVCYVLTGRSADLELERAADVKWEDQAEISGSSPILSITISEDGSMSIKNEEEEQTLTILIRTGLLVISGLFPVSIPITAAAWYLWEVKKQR

NC(=O)c1cccc(NC(=O)C(Cc2ccccc2)NC(=O)c2ccc(Oc3ccccc3)cc2)c1 (stereo not shown) [compound 70, 70]
inhibition at 12.5 µM [1]: 55%
CC50 [2]: > 50 µM

CC(C(=O)NCC1(CC(=O)N[C@H](C(=O)Nc2cccc(C(N)=O)c2)c2ccc(OCc3ccccc3)cc2)CCCCC1)c1ccc2c(c1)[nH]c1ccc(Cl)cc12 (stereo partly shown) [compound 6, 6]
EC50 [3, 18]: 2.9 µM
IC50 [4]: 8 µM
CC50 [5]: > 50 µM
inhibition at 12.5 µM [6]: 60%
inhibition at 50 µM [7]: 99%

NC(=O)c1cccc(NC(=O)[C@@H](NC(=O)c2ccc(Nc3ccccc3)cc2)c2ccc(OCc3ccccc3)cc2)c1 [compound 7]
EC50 [8]: 0.7 µM
CC50 [5]: ≥ 100 µM
inhibition at 25 µM [9]: < 10%
inhibition at 12.5 µM [6]: 93%
inhibition at 50 µM [7]: 99%

Cc1onc(-c2ccc(F)cc2)c1C(=O)N[C@H](C(=O)Nc1cccc(C(N)=O)c1)c1ccc(OCc2ccccc2)cc1 [compound 29, 29]
IC50 [10]: 14 µM
inhibition at 12.5 µM [11]: 64%
inhibition at 50 µM [12]: 82%
CC50 [13]: > 50 µM

Cc1nc(-c2ccncc2)sc1C(=O)N[C@H](C(=O)Nc1cccc(C(N)=O)c1)c1ccc(OCc2ccccc2)cc1 [compound 35, 35]
inhibition at 12.5 µM [11]: 78%
inhibition at 50 µM [12]: 69%
CC50 [13]: > 50 µM

CC(C)Cc1ccc(C(C)C(=O)N[C@H](C(=O)Nc2cccc(C(N)=O)c2)c2ccc(OCc3ccccc3)cc2)cc1 (stereo partly shown) [compound 3, 3]
EC50 [3]: 3.8 µM
IC50 [4]: 8 µM
CC50 [5]: > 25 µM
inhibition at 12.5 µM [6]: 84%

NC(=O)c1cccc(NC(=O)C(Cc2ccc(NCc3ccccc3)cc2)NC(=O)c2ccc(Oc3ccccc3)cc2)c1 (stereo not shown) [compound 68]
CC50 [2]: > 50 µM
IC50 [14]: 15 µM

NC(=O)c1cccc(NC(=O)[C@@H](NC(=O)c2cc(O)n(-c3ccccc3)n2)c2ccc(OCc3ccccc3)cc2)c1 [compound 27]
CC50 [15]: > 50 µM
inhibition at 12.5 µM [16]: 24%
IC50 [14]: 30 µM

NC(=O)c1cccc(NC(=O)[C@@H](NC(=O)c2ccc(Oc3ccccc3)nc2)c2ccc(OCc3ccccc3)cc2)c1 [compound 33]
EC50 [8]: 8.8 µM
inhibition at 12.5 µM [11]: 55%
inhibition at 50 µM [12]: 70%
CC50 [13]: > 100 µM
IC50 [14]: 34 µM

CC(CC(=O)N[C@H](C(=O)Nc1cccc(C(N)=O)c1)c1ccc(OCc2ccccc2)cc1)CC(C)(C)C (stereo partly shown) [compound 16]
CC50 [15]: ≥ 100 µM
EC50 [8]: 11 µM
inhibition at 12.5 µM [16]: 61%
inhibition at 25 µM [9]: 98%
IC50 [14]: 11 µM

COc1ccc(/C=C/C(=O)C(=O)NC(C)(C)C)cc1OC [GG-80-1]
inhibition at 25 µM [9]: 97%

NC(=O)c1cccc(NC(=O)[C@@H](NC(=O)Cc2ccccc2Nc2c(Cl)cccc2Cl)c2ccc(OCc3ccccc3)cc2)c1 [compound 9, 9]
EC50 [3]: 8.6 µM
IC50 [4]: 10 µM
CC50 [5]: > 50 µM
inhibition at 12.5 µM [6]: 60%
inhibition at 50 µM [7]: 99%

CC(C(=O)N[C@H](C(=O)Nc1cccc(C(N)=O)c1)c1ccc(OCc2ccccc2)cc1)c1ccccc1 (stereo partly shown) [compound 28, 28]
IC50 [10]: 17 µM
inhibition at 12.5 µM [11]: 77%
EC50 [17]: 8 µM
inhibition at 50 µM [12]: 83%
CC50 [13]: > 50 µM

CC(C(=O)N[C@H](C(=O)Nc1cccc(C(N)=O)c1)c1ccc(OCc2ccccc2)cc1)c1cccc(Oc2ccccc2)c1 (stereo partly shown) [compound 4, 4]
EC50 [3, 18]: 4 µM
IC50 [4]: 9.7 µM
CC50 [5]: > 50 µM
inhibition at 25 µM [9]: 85%
inhibition at 12.5 µM [6]: 86%
inhibition at 50 µM [7]: 100%

NC(=O)c1cccc(NC(=O)[C@@H](NC(=O)c2ccc(Oc3ccccc3)cc2)c2ccc(OCc3ccccc3)cc2)c1 [compound 1]
IC50 [14]: 13 µM

NC(=O)c1cccc(NC(=O)[C@@H](NC(=O)Cc2ccc(Oc3ccccc3)cc2)c2ccc(OCc3ccccc3)cc2)c1 [compound 11, 11]
EC50 [3]: 6.9 µM
IC50 [4]: 14 µM
CC50 [5]: > 50 µM
inhibition at 12.5 µM [6]: 78%
inhibition at 50 µM [7]: 99%

NC(=O)c1cccc(NC(=O)C(CCc2ccccc2)NC(=O)c2ccc(Oc3ccccc3)cc2)c1 (stereo not shown) [compound 66, 66]
inhibition at 12.5 µM [1]: 67%
CC50 [2]: > 50 µM

CC(C)CC(NC(=O)c1ccc(Oc2ccccc2)cc1)C(=O)Nc1cccc(C(N)=O)c1 (stereo not shown) [compound 73, 73]
inhibition at 12.5 µM [1]: 36%
CC50 [2]: ≥ 50 µM

NC(=O)c1cccc(NC(=O)[C@@H](NC(=O)c2ccc(-c3ccccc3)o2)c2ccc(OCc3ccccc3)cc2)c1 [compound 5, 5]
EC50 [3, 18]: 5.9 µM
IC50 [4]: 9.3 µM
CC50 [5]: > 100 µM
inhibition at 25 µM [9]: 96%
inhibition at 12.5 µM [6]: 85%
inhibition at 50 µM [7]: 100%

NC(=O)c1cccc(NC(=O)[C@@H](NC(=O)OCc2ccccc2)c2ccc(OCc3ccccc3)cc2)c1 [compound 36, 36]
IC50 [10]: 28 µM
inhibition at 12.5 µM [11]: 60%
EC50 [17]: 5 µM
CC50 [13]: ≥ 50 µM

NC(=O)c1cccc(NC(=O)C(CCC(=O)Nc2ccccc2)NC(=O)c2ccc(Oc3ccccc3)cc2)c1 (stereo not shown) [compound 71, 71]
inhibition at 12.5 µM [1]: 45%
CC50 [2]: > 50 µM

NC(=O)c1cccc(NC(=O)C(NC(=O)c2ccccc2)c2ccc(OCc3ccccc3)cc2)c1 (stereo not shown) [compound 42, 42]
inhibition at 12.5 µM [11]: 80%
inhibition at 50 µM [12]: 56%
CC50 [13]: > 100 µM

CC(C)(C)NC(=O)C(=O)/C=C/c1c[nH]c2ccccc12 [GG-92]
inhibition at 25 µM [9]: 40%

COc1cc(C(=O)N[C@H](C(=O)Nc2cccc(C(N)=O)c2)c2ccc(OCc3ccccc3)cc2)ccc1Oc1ccccc1 [compound 8, 8]
EC50 [3]: 1.4 µM
IC50 [4]: 12 µM
CC50 [5]: > 100 µM
inhibition at 12.5 µM [6]: 86%
inhibition at 50 µM [7]: 99%

NC(=O)c1cccc(NC(=O)C(CC2CCCCC2)NC(=O)c2ccc(Oc3ccccc3)cc2)c1 (stereo not shown) [compound 64, 64]
inhibition at 12.5 µM [1]: 82%
CC50 [2]: 40 µM

COc1ccc2cc([C@H](C)C(=O)N[C@H](C(=O)Nc3cccc(C(N)=O)c3)c3ccc(OCc4ccccc4)cc3)ccc2c1 [compound 10, 10]
EC50 [3, 18]: 3.7 µM
IC50 [4]: 12 µM
CC50 [5]: > 100 µM
inhibition at 12.5 µM [6]: 71%

CC(C)CCC(=O)N1CCC(C(=O)N[C@H](C(=O)Nc2cccc(C(N)=O)c2)c2ccc(OCc3ccccc3)cc2)CC1 [compound 34, 34]
inhibition at 12.5 µM [11]: 53%
EC50 [17]: 11 µM
inhibition at 50 µM [12]: 69%
CC50 [13]: > 100 µM

NC(=O)c1cccc(NC(=O)C(Cc2ccc3ccccc3c2)NC(=O)c2ccc(Oc3ccccc3)cc2)c1 (stereo not shown) [compound 65]
EC50 [8]: 7.4 µM
inhibition at 12.5 µM [1]: 55%
CC50 [2]: > 50 µM
IC50 [14]: 5.9 µM
